Results taken from PMC11859916, “Design, Synthesis, and Biological Evaluation of a Novel [^18F]AlF-H3RESCA-FAPI Radiotracer Targeting Fibroblast Activation Protein” (Pharmaceuticals, 2025).

What was measured:
[1] = target: T1, recombinant human FAP protein (Homo sapiens, UniProt Q12884); assay: Biacore SPR binding affinity measurement; settings: read-out: KD (equilibrium dissociation constant)
T1 construct: purchased Sino Biological Inc., Beijing, China 10464-H07H
T1 sequence (Q12884 1-760): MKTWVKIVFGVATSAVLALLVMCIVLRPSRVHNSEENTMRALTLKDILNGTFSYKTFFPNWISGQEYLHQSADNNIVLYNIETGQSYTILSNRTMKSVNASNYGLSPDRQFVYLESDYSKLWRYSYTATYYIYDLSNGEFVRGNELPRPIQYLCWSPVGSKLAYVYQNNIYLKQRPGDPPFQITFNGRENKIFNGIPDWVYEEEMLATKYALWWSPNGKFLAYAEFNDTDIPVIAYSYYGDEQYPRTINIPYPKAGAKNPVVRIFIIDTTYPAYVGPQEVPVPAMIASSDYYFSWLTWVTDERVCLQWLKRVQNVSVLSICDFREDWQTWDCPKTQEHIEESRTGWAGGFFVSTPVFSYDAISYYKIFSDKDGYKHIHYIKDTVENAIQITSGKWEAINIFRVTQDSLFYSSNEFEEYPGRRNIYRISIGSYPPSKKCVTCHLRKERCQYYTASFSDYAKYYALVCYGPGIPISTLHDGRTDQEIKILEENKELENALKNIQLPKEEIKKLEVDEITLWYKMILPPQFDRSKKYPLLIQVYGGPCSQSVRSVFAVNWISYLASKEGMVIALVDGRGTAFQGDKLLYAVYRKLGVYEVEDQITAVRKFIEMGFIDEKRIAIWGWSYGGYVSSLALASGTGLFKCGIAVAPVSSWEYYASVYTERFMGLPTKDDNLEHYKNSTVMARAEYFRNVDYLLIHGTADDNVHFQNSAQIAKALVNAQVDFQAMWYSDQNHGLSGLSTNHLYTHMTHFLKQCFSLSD
Method: In order to determine the binding kinetics between ligands and human FAP protein (10464-H07H, Sino Biological Inc., Beijing, China), the Biacore SPR interaction study was conducted. The binding affinity is expressed by the equilibrium dissociation constant (KD) (M), which is calculated from the values of the measured binding rate constant (ka) (M^−1 s^−1) and dissociation rate (kd) (s^−1).

[2] = Octanol-water partition coefficient (n-octanol/PBS); assay type: physicochemical; settings: n-octanol/PBS 1:1, ambient temperature
Method: Radiotracers [^68Ga]Ga-DOTA-FAPI-04 and [^18F]AlF-H3RESCA-FAPI (0.37 MBq, about 50 µL) were added to tubes containing n-octanol/PBS mixture (1 mL, 1:1). The mixture was vortexed vigorously for 5 min at ambient temperature and then centrifuged for five min at 8000 rpm. In each phase, three samples (each 50 µL) were removed and measured in γ-counter (PerkinElmer). The partition coefficient was expressed as an equation as follows:(1) LogD7.4=LogCPM(n−octanol)/CPM(PBS)

Row | Structure (SMILES) | Kd [1] [pM] | logD7.4 (octanol-water partition coefficient) [2]
1 | N#C[C@@H]1CC(F)(F)CN1C(=O)CNC(=O)c1ccnc2ccc(OCCCN3CCN(C(=O)Cc4ccc(CN(CC(=O)O)[C@@H]5CCCC[C@H]5N(CC(=O)O)CC(=O)O)cc4)CC3)cc12 [H3RESCA-FAPI, 2,2′-(((1R,2R)-2-((carboxymethyl)(4-(2-(4-(3-((4-((2-((S)-2-cyano-4,4-difluoropyrrolidin-1-yl)-2-oxoethyl)carbamoyl)quinolin-6-yl)oxy)propyl)piperazin-1-yl)-2-oxoethyl)benzyl)amino)cyclohexyl)azanediyl)diacetic acid] | < 10.1 | –
2 | N#C[C@@H]1CC(F)(F)CN1C(=O)CNC(=O)c1ccnc2ccc(OCCCN3CCN(C(=O)CN4CCN(CC(=O)[O-])CCN(CC(=O)O)CCN(CC(=O)[O-])CC4)CC3)cc12.[68Ga+3] [[^68Ga]Ga-DOTA-FAPI-04] | – | −3.53 ± 0.05
